In US20260285850A1, “SUBSTITUTED OXAZOLIDINONES AND IMIDAZOLINONES AS HERBICIDES” (FMC CORPORATION, priority 2023, published 2026):

Experiments:
Assay type in all cases: in vivo
[1] = test system: green foxtail (Setaria viridis); assay: Test A preemergence soil spray, visual injury rating 0-100; conditions: 10 days
Summary of the method: (§1)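 Compounds formulated in a non-phytotoxic solvent with surfactant are sprayed onto soil of freshly planted loam-sand pots ahead of emergence, or onto emerged plants 2-10 cm tall. After a 10-day greenhouse period, each species is scored visually for injury against untreated controls.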

corn (Zea mays) [2] = assay: as above; conditions: 10 days
Summary of the method: as §1

kochia (Bassia scoparia) [3] = assay: as above; conditions: 10 days
Summary of the method: as §1

[4] = test system: ragweed (common ragweed, Ambrosia artemisiifolia); assay: as above; conditions: 10 days
Summary of the method: as §1

[5] = test system: oat, wild (wild oat, Avena fatua); assay: as above; conditions: 10 days
Summary of the method: as §1

[6] = test system: blackgrass (Alopecurus myosuroides); assay: as above; conditions: 10 days
Summary of the method: as §1

[7] = test system: barnyardgrass (Echinochloa crus-galli); assay: as above; conditions: 10 days
Summary of the method: as §1

[8] = test system: palmer (palmer amaranth, palmer pigweed, Amaranthus palmeri); assay: as above; conditions: 10 days
Summary of the method: as §1

[9] = test system: wheat (Triticum aestivum); assay: as above; conditions: 10 days
Summary of the method: as §1

[10] = test system: ryegrass, Italian (italian ryegrass, Lolium multiflorum); assay: as above; conditions: 10 days
Summary of the method: as §1

soybean (Glycine max) [11] = assay: as above; conditions: 10 days
Summary of the method: as §1

[12] = test system: sedge, umbrella (small-flower umbrella sedge, Cyperus difformis); assay: Test B flooded paddy test, visual plant response rating 0-100; conditions: 250 g ai/ha, Flood, applied to paddy water, evaluated after 13 days
Summary of the method: (§2)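 Paddy-water application: test compounds went directly into water flooded 3 cm above the soil surface, with plants at 2 leaves. After a 13-day greenhouse period, responses were judged by eye relative to controls; a dash marks an untested entry.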

[13] = test system: ducksalad (Heteranthera limosa); assay: as above; conditions: 250 g ai/ha, Flood, applied to paddy water, evaluated after 13 days
Summary of the method: as §2

[14] = test system: barnyardgrass (Echinochloa crusgalli); assay: as above; conditions: 250 g ai/ha, Flood, applied to paddy water, evaluated after 13 days
Summary of the method: as §2

rice (Oryza sativa) = assay: as above; conditions: 250 g ai/ha, Flood, applied to paddy water, evaluated after 13 days
Summary of the method: as §2

[15] = test system: green foxtail (Setaria viridis); assay: Test A postemergence application, visual injury rating 0-100
Summary of the method: as §1

corn (Zea mays) [16] = assay: as above
Summary of the method: as §1

[17] = test system: galium (catchweed bedstraw, Galium aparine); assay: as above
Summary of the method: as §1

kochia (Bassia scoparia) [18] = assay: as above
Summary of the method: as §1

[19] = test system: ragweed (common ragweed, Ambrosia artemisiifolia); assay: as above
Summary of the method: as §1

[20] = test system: horseweed (Erigeron canadensis); assay: as above
Summary of the method: as §1

[21] = test system: oat, wild (wild oat, Avena fatua); assay: as above
Summary of the method: as §1

[22] = test system: blackgrass (Alopecurus myosuroides); assay: as above
Summary of the method: as §1

[23] = test system: barnyardgrass (Echinochloa crus-galli); assay: as above
Summary of the method: as §1

[24] = test system: palmer (palmer amaranth, palmer pigweed, Amaranthus palmeri); assay: as above
Summary of the method: as §1

[25] = test system: wheat (Triticum aestivum); assay: as above
Summary of the method: as §1

[26] = test system: ryegrass, Italian (italian ryegrass, Lolium multiflorum); assay: as above
Summary of the method: as §1

soybean (Glycine max) [27] = assay: as above
Summary of the method: as §1

[28] = 62 g ai/ha, 0 = no effect, 100 = complete control
[29] = 62 g ai/ha, postemergence, 10 days, 0 = no effect, 100 = complete control
[30] = Postemergence, 16 g ai/ha, greenhouse 10 days, 0 no effect, 100 complete control

## C=CC1(C(=O)NC2C=CC(C(=O)O)C2)CN(c2cc(F)cc(F)c2)C(=O)O1 (mixture of isomers) [Compound 166]
[1]; 16 g ai/ha, 0 to 100 scale
  Foxtail, Green plant response rating: 0
[1]; [28]
  Foxtail, Green plant response rating (0-100): 50
Corn (Zea mays) [2]; 16 g ai/ha, 0 to 100 scale
  Corn plant response rating: 20
Corn (Zea mays) [2]; [28]
  Corn plant response rating (0-100): 60
Kochia (Bassia scoparia) [3]; 16 g ai/ha, 0 to 100 scale
  Kochia plant response rating: 0
Kochia (Bassia scoparia) [3]; [28]
  Kochia plant response rating (0-100): 60
[4]; 16 g ai/ha, 0 to 100 scale
  Ragweed plant response rating: 0
[4]; [28]
  Ragweed plant response rating (0-100): 30
[5]; 16 g ai/ha, 0 to 100 scale
  Oat, Wild plant response rating: 0
[5]; [28]
  Oat, Wild plant response rating (0-100): 60
[6]; 16 g ai/ha, 0 to 100 scale
  Blackgrass plant response rating: 10
[6]; [28]
  Blackgrass plant response rating (0-100): 70
[7]; 16 g ai/ha, 0 to 100 scale
  Barnyardgrass plant response rating: 40
[7]; [28]
  Barnyardgrass plant response rating (0-100): 100
[8]; 16 g ai/ha, 0 to 100 scale
  Pigweed, Palmer plant response rating: 20
[8]; [28]
  Pigweed, Palmer plant response rating (0-100): 100
[9]; 16 g ai/ha, 0 to 100 scale
  Wheat plant response rating: 60
[9]; [28]
  Wheat plant response rating (0-100): 90
[10]; 16 g ai/ha, 0 to 100 scale
  Ryegrass, Italian plant response rating: 0
[10]; [28]
  Ryegrass, Italian plant response rating (0-100): 90
Soybean (Glycine max) [11]; 16 g ai/ha, 0 to 100 scale
  Soybean plant response rating: 20
Soybean (Glycine max) [11]; [28]
  Soybean plant response rating (0-100): 90
[12]
  Plant response rating, Sedge, Umbrella (0 to 100 scale, 0 is no effect and 100 is complete control): 95
[13]
  Plant response rating, Ducksalad (0 to 100 scale, 0 is no effect and 100 is complete control): 85
[14]
  Plant response rating, Barnyardgrass (0 to 100 scale, 0 is no effect and 100 is complete control): 95
Rice (Oryza sativa)
  Plant response rating, Rice (0 to 100 scale, 0 is no effect and 100 is complete control): 80
[15]; [29]
  Foxtail, Green plant response rating (0-100): 90
[15]; [30]
  Foxtail, Green plant response rating (0 to 100 scale): 30
Corn (Zea mays) [16]; [29]
  Corn plant response rating (0-100): 100
Corn (Zea mays) [16]; [30]
  Corn plant response rating (0 to 100 scale): 90
[17]; [29]
  Galium plant response rating (0-100): 90
[17]; [30]
  Galium plant response rating (0 to 100 scale): 70
Kochia (Bassia scoparia) [18]; [29]
  Kochia plant response rating (0-100): 80
Kochia (Bassia scoparia) [18]; [30]
  Kochia plant response rating (0 to 100 scale): 80
[19]; [29]
  Ragweed plant response rating (0-100): 70
[19]; [30]
  Ragweed plant response rating (0 to 100 scale): 40
[20]; [29]
  Horseweed plant response rating (0-100): 80
[20]; [30]
  Horseweed plant response rating (0 to 100 scale): 50
[21]; [29]
  Oat, Wild plant response rating (0-100): 90
[21]; [30]
  Oat, Wild plant response rating (0 to 100 scale): 90
[22]; [29]
  Blackgrass plant response rating (0-100): 90
[22]; [30]
  Blackgrass plant response rating (0 to 100 scale): 70
[23]; [29]
  Barnyardgrass plant response rating (0-100): 100
[23]; [30]
  Barnyardgrass plant response rating (0 to 100 scale): 90
[24]; [29]
  Pigweed, Palmer plant response rating (0-100): 90
[24]; [30]
  Pigweed, Palmer plant response rating (0 to 100 scale): 90
[25]; [29]
  Wheat plant response rating (0-100): 90
[25]; [30]
  Wheat plant response rating (0 to 100 scale): 90
[26]; [29]
  Ryegrass, Italian plant response rating (0-100): 90
[26]; [30]
  Ryegrass, Italian plant response rating (0 to 100 scale): 60
Soybean (Glycine max) [27]; [29]
  Soybean plant response rating (0-100): 100
Soybean (Glycine max) [27]; [30]
  Soybean plant response rating (0 to 100 scale): 80
